Assay results as given in patent US20230373985A1 (Origenis Gmbh, priority 2020, published 2023).

Columns and labels:
[1] = target: T1, wt human TYK2, catalytic site (Homo sapiens, UniProt P29597); test: HTRF KinEASE assay, TYK2; type: biochemical; details: 1 μM ATP; read-out: IC50, Activity Toward TYK2
T1 construct: wt human TYK2, catalytic site; purchased SignalChem
T1 sequence (P29597 897-1176 limits assumed): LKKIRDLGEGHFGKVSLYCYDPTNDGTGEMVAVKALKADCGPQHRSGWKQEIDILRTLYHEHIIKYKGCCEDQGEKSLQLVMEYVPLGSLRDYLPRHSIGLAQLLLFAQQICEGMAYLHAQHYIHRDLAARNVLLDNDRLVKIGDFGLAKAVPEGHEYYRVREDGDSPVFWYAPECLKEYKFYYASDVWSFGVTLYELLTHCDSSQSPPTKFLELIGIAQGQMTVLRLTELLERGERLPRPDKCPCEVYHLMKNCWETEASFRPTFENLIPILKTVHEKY
Outline: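 HTRF KinEASE-TK readout with 1 μM biotinylated TK substrate in 1× kinase buffer, ≥30 min at room temperature, then antibody/streptavidin-XL665 detection for 60 min. TYK2 at 2 nM with 1 μM ATP; JAK2 at 1 nM with 100 μM ATP. Analysis uses emission ratios.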

[2] = target: T2, wt human JAK1, catalytic site (Homo sapiens, UniProt P23458); test: HTRF KinEASE assay, JAK1; type: biochemical; details: 2.5 μM ATP; read-out: IC50, Activity Toward JAK1
T2 construct: wt human JAK1, catalytic site; purchased ThermoFisher
T2 sequence (P23458 875-1153 limits assumed): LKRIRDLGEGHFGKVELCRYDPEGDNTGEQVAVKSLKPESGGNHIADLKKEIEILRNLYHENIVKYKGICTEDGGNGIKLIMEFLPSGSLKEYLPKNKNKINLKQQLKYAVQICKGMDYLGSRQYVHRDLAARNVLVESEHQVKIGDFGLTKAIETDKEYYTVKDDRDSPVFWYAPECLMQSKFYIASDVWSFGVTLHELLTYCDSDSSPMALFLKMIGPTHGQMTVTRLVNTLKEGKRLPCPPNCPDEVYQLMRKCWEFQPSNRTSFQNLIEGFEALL
Outline: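 Two-step HTRF KinEASE assay: compound, kinase/biotinylated TK substrate and ATP were incubated at least 30 min at room temperature. Antibody plus streptavidin-XL665 was then added and plates were read after 60 min. Inhibition was derived from emission ratios according to the kit protocol.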

Row | Compound | IC50 [1] [µM] | IC50 [2] [µM]
1 | NC(=O)c1nn(-c2c(Cl)cccc2Cl)nc1Nc1ccc(C(=O)N2CC(O)C2)cn1 [compound 154, 2-(2,6-dichlorophenyl)-5-((5-(3-hydroxyazetidine-1-carbonyl)pyridin-2-yl)amino)-2H-1,2,3-triazole-4-carboxamide] | 0.01 to 0.1 | 0.01 to 0.1
2 | Cc1ncnn1-c1ccc(Nc2nn(-c3c(Cl)cccc3Cl)nc2C(N)=O)nc1 [compound 156, 2-(2,6-dichlorophenyl)-5-((5-(5-methyl-1H-1,2,4-triazol-1-yl)pyridin-2-yl)amino)-2H-1,2,3-triazole-4-carboxamide] | 0.01 to 0.1 | 0.01 to 0.1
3 | NC(=O)c1nn(-c2c(Cl)cccc2Cl)nc1Nc1ccc(-n2nncc2C(F)(F)F)cn1 [compound 157, 2-(2,6-dichlorophenyl)-5-((5-(5-(trifluoromethyl)-1H-1,2,3-triazol-1-yl)pyridin-2-yl)amino)-2H-1,2,3-triazole-4-carboxamide] | 0.1 to 1 | 0.01 to 0.1
4 | Cn1nnnc1-c1ccc(Nc2nn(-c3c(Cl)cccc3Cl)nc2C(N)=O)nc1 [compound 158, 2-(2,6-dichlorophenyl)-5-((5-(1-methyl-1H-tetrazol-5-yl)pyridin-2-yl)amino)-2H-1,2,3-triazole-4-carboxamide] | 0.01 to 0.1 | 0.01 to 0.1
5 | NC(=O)c1nn(-c2c(Cl)cccc2Cl)nc1Nc1ccc(C(=O)N2CCS(=O)(=O)CC2)cn1 [compound 160, 2-(2,6-dichlorophenyl)-5-((5-(1,1-dioxidothiomorpholine-4-carbonyl)pyridin-2-yl)amino)-2H-1,2,3-triazole-4-carboxamide] | < 0.01 | 0.01 to 0.1
6 | Cc1cncc2nnc(-c3ccc(Nc4nn(-c5c(Cl)cccc5Cl)nc4C(N)=O)cn3)n12 [compound 161, 2-(2,6-dichlorophenyl)-5-((6-(5-methyl-[1,2,4]triazolo[4,3-a]pyrazin-3-yl)pyridin-3-yl)amino)-2H-1,2,3-triazole-4-carboxamide] | 0.01 to 0.1 | 0.01 to 0.1
7 | CC1(C)CN(C(=O)c2ccc(Nc3nn(-c4c(Cl)cccc4Cl)nc3C(N)=O)nc2)C1 [compound 165, 2-(2,6-dichlorophenyl)-5-((5-(3,3-dimethylazetidine-1-carbonyl)pyridin-2-yl)amino)-2H-1,2,3-triazole-4-carboxamide] | 0.01 to 0.1 | 0.1 to 1
8 | CC1(C)CN(C(=O)c2ccc(Nc3nn(-c4c(Cl)cccc4Cl)nc3C(N)=O)cc2)C1 [compound 166, 2-(2,6-dichlorophenyl)-5-((4-(3,3-dimethylazetidine-1-carbonyl)phenyl)amino)-2H-1,2,3-triazole-4-carboxamide] | 0.01 to 0.1 | < 0.01
9 | NC(=O)c1nn(-c2c(Cl)cccc2Cl)nc1Nc1cnn(CC(=O)N2CCOCC2)c1 [compound 168, 2-(2,6-dichlorophenyl)-5-((1-(2-morpholino-2-oxoethyl)-1H-pyrazol-4-yl)amino)-2H-1,2,3-triazole-4-carboxamide] | 0.01 to 0.1 | 0.01 to 0.1
10 | NC(=O)c1nn(-c2c(Cl)cccc2Cl)nc1Nc1ccc(C(=O)N2CCSCC2)cc1 [compound 170, 2-(2,6-dichlorophenyl)-5-((4-(thiomorpholine-4-carbonyl)phenyl)amino)-2H-1,2,3-triazole-4-carboxamide] | < 0.01 | < 0.01
11 | NC(=O)c1nn(-c2c(Cl)cccc2Cl)nc1Nc1cnn(CC(=O)N2CCS(=O)(=O)CC2)c1 [compound 174, 2-(2,6-dichlorophenyl)-5-((1-(2-(1,1-dioxidothiomorpholino)-2-oxoethyl)-1H-pyrazol-4-yl)amino)-2H-1,2,3-triazole-4-carboxamide] | 0.01 to 0.1 | < 0.01
12 | NC(=O)c1nn(-c2c(Cl)cc(F)cc2Cl)nc1Nc1ccc(C(=O)N2CCS(=O)(=O)CC2)cc1 [compound 175, 2-(2,6-dichloro-4-fluorophenyl)-5-((4-(1,1-dioxidothiomorpholine-4-carbonyl)phenyl)amino)-2H-1,2,3-triazole-4-carboxamide] | < 0.01 | < 0.01
13 | COc1cc(Cl)c(-n2nc(Nc3ccc(C(=O)N4CCSCC4)cc3)c(C(N)=O)n2)c(Cl)c1 [compound 176, 2-(2,6-dichloro-4-methoxyphenyl)-5-((4-(thiomorpholine-4-carbonyl)phenyl)amino)-2H-1,2,3-triazole-4-carboxamide] | 0.1 to 1 | 0.01 to 0.1
14 | NC(=O)c1nn(-c2c(Cl)cc(F)cc2Cl)nc1Nc1ccc(C(=O)N2CCSCC2)cc1 [compound 177, 2-(2,6-dichloro-4-fluorophenyl)-5-((4-(thiomorpholine-4-carbonyl)phenyl)amino)-2H-1,2,3-triazole-4-carboxamide] | 0.01 to 0.1 | < 0.01
15 | Cn1cncc1-c1ccc(Nc2cn(-c3c(Cl)cccc3Cl)nc2C(N)=O)cc1 [compound 204, 1-(2,6-dichlorophenyl)-4-((4-(1-methyl-1H-imidazol-5-yl)phenyl)amino)-1H-pyrazole-3-carboxamide] | 0.01 to 0.1 | 0.1 to 1
16 | NC(=O)c1nn(-c2c(F)cccc2Cl)cc1Nc1ccc(-n2cc3c(n2)CCOC3)cc1 [compound 209, 1-(2-chloro-6-fluorophenyl)-4-((4-(6,7-dihydropyrano[4,3-c]pyrazol-2(4H)-yl)phenyl)amino)-1H-pyrazole-3-carboxamide] | 0.01 to 0.1 | 0.1 to 1
17 | Cc1cnnc(-c2ccc(Nc3cn(-c4c(Cl)cccc4Cl)nc3C(N)=O)cc2)c1C [compound 213, 1-(2,6-dichlorophenyl)-4-((4-(4,5-dimethylpyridazin-3-yl)phenyl)amino)-1H-pyrazole-3-carboxamide] | 0.01 to 0.1 | 0.1 to 1
18 | Cn1nc(C(F)(F)F)nc1-c1ccc(Nc2cn(-c3c(Cl)cccc3Cl)nc2C(N)=O)cc1 [compound 215, 1-(2,6-dichlorophenyl)-4-((4-(1-methyl-3-(trifluoromethyl)-1H-1,2,4-triazol-5-yl)phenyl)amino)-1H-pyrazole-3-carboxamide] | < 0.01 | 0.01 to 0.1

Results, then the compound that gave them:

Row | IC50 [1] [µM] | IC50 [2] [µM] | Compound
19 | 0.01 to 0.1 | 0.01 to 0.1 | Cc1cc(C)n(-c2ccc(Nc3cn(-c4c(Cl)cccc4Cl)nc3C(N)=O)cc2)n1 [compound 216, 1-(2,6-dichlorophenyl)-4-((4-(3,5-dimethyl-1H-pyrazol-1-yl)phenyl)amino)-1H-pyrazole-3-carboxamide]
20 | 0.1 to 1 | 0.1 to 1 | Cc1cnn(-c2ccc(Nc3cn(-c4c(Cl)cccc4Cl)nc3C(N)=O)cc2)c1C [compound 218, 1-(2,6-dichlorophenyl)-4-((4-(4,5-dimethyl-1H-pyrazol-1-yl)phenyl)amino)-1H-pyrazole-3-carboxamide]
21 | 0.1 to 1 | 0.1 to 1 | Cc1nn(-c2ccc(Nc3cn(-c4c(Cl)cccc4Cl)nc3C(N)=O)cc2)c(C)c1C [compound 224, 1-(2,6-dichlorophenyl)-4-((4-(3,4,5-trimethyl-1H-pyrazol-1-yl)phenyl)amino)-1H-pyrazole-3-carboxamide]
22 | 0.01 to 0.1 | 0.1 to 1 | NC(=O)c1nn(-c2c(Cl)cccc2Cl)cc1Nc1ccc(C(=O)N2CCCC2)cn1 [compound 226, 1-(2,6-dichlorophenyl)-4-((5-(pyrrolidine-1-carbonyl)pyridin-2-yl)amino)-1H-pyrazole-3-carboxamide]
23 | 0.1 to 1 | 0.1 to 1 | CCc1ccn(-c2ccc(Nc3cn(-c4c(Cl)cccc4Cl)nc3C(N)=O)cc2)n1 [compound 240, 1-(2,6-dichlorophenyl)-4-((4-(3-ethyl-1H-pyrazol-1-yl)phenyl)amino)-1H-pyrazole-3-carboxamide]
24 | 0.01 to 0.1 | < 0.01 | CCc1ccnn1-c1ccc(Nc2cn(-c3c(Cl)cccc3Cl)nc2C(N)=O)cc1 [compound 241, 1-(2,6-dichlorophenyl)-4-((4-(5-ethyl-1H-pyrazol-1-yl)phenyl)amino)-1H-pyrazole-3-carboxamide]
25 | 0.01 to 0.1 | 0.01 to 0.1 | Cn1c(-c2ccc(Nc3cn(-c4c(Cl)cccc4Cl)nc3C(N)=O)cc2)nnc1C(F)(F)F [compound 242, 1-(2,6-dichlorophenyl)-4-((4-(4-methyl-5-(trifluoromethyl)-4H-1,2,4-triazol-3-yl)phenyl)amino)-1H-pyrazole-3-carboxamide]
26 | < 0.01 | 0.01 to 0.1 | Cc1nnnn1-c1ccc(Nc2cn(-c3c(Cl)cccc3Cl)nc2C(N)=O)cc1 [compound 243, 1-(2,6-dichlorophenyl)-4-((4-(5-methyl-1H-tetrazol-1-yl)phenyl)amino)-1H-pyrazole-3-carboxamide]
27 | 0.1 to 1 | 0.1 to 1 | Cc1c(C#N)cnn1-c1ccc(Nc2cn(-c3c(Cl)cccc3Cl)nc2C(N)=O)cc1 [compound 253, 4-((4-(4-cyano-5-methyl-1H-pyrazol-1-yl)phenyl)amino)-1-(2,6-dichlorophenyl)-1H-pyrazole-3-carboxamide]
28 | < 0.01 | 0.01 to 0.1 | NC(=O)c1nn(-c2c(Cl)cccc2Cl)cc1Nc1ccc(C(=O)N2CC(F)(F)C(F)(F)C2)cc1 [compound 254, 1-(2,6-dichlorophenyl)-4-((4-(3,3,4,4-tetrafluoropyrrolidine-1-carbonyl)phenyl)amino)-1H-pyrazole-3-carboxamide]
